Test results from article PMC12150326 (The Journal of Organic Chemistry, 2025).
Like-named read-outs stand apart in the source and are kept apart here.

Experiments:
Type in all cases: cell-based, human
ACHN = system: ACHN
Method in brief: (§1)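 Tested in five doses (top 100 μM, lowest 0.01 μM) within the 60 Cell Screen; COMPARE used TGI responses relative to known tubulin inhibitors.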

SNB-19 = system: SNB-19
Method in brief: as §1

A498 = system: A498
Method in brief: (§2)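 Each atropisomer and iso-atropisomer was submitted to the NCI screen and run at five tenfold dilutions from 100 μM down to 0.01 μM.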

BT-549 = system: BT-549
Method in brief: as §2

NCI-H23 = system: NCI-H23
Method in brief: as §2

MALME-3M = system: MALME-3M
Method in brief: as §2

T-47D = system: T-47D
Method in brief: as §2

LOX IMVI = system: LOX IMVI
Method in brief: as §1

NCI 60 cell lines = system: NCI 60 cell lines
Method in brief: as §2

786-0 = system: 786-0
Method in brief: as §2

PC-3 = system: PC-3
Method in brief: as §1

MOLT-4 = system: MOLT-4
Method in brief: as §2

SK-MEL-5 = system: SK-MEL-5
Method in brief: as §2

MCF7 = system: MCF7
Method in brief: as §2

K-562 = system: K-562
Method in brief: as §2

OVCAR-8 = system: OVCAR-8
Method in brief: as §2

NCI-H460 = system: NCI-H460
Method in brief: as §2

SN12C = system: SN12C
Method in brief: as §2

SR = system: SR
Method in brief: (§3)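 TGI-based COMPARE analysis set the response profiles against historical NCI-60 data for established antitubulin compounds, after testing at five log-spaced doses (0.01–100 μM) in the 60-line screen.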

TK-10 = system: TK-10
Method in brief: as §1

HL-60(TB) = system: HL-60(TB)
Method in brief: as §3

HT29 = system: HT29
Method in brief: as §2

SK-MEL-28 = system: SK-MEL-28
Method in brief: as §2

HOP-92 = system: HOP-92
Method in brief: as §2

HCT-116 = system: HCT-116
Method in brief: as §2

CAKI-1 = system: CAKI-1
Method in brief: as §2

NCI/ADR-RES = system: NCI/ADR-RES
Method in brief: as §2

## COc1cc(C)c(-c2ccc(OC)c(=O)cc2C)c(OC)c1OC (single isomer, unassigned) [(aR)-6]
ACHN
  Log10GI50: -5.27 Molar
  Log10LC50: > -4.00 Molar
  Log10TGI: > -4.00 Molar
ACHN; Homo sapiens
  GI50: 5.37 µM
ACHN; listed as (aR)-DM-MTC
  Log10GI50: -5.27 Molar
SNB-19
  Log10GI50: -5.53 Molar
  Log10LC50: > -4.00 Molar
  Log10TGI: > -4.00 Molar
SNB-19; Homo sapiens
  GI50: 2.95 µM
SNB-19; listed as (aR)-DM-MTC
  Log10GI50: -5.53 Molar
A498
  Log10GI50: -6.10 Molar
  Log10LC50: > -4.00 Molar
  Log10TGI: -5.34 Molar
A498; Homo sapiens
  GI50: 0.79 µM
A498; listed as (aR)-DM-MTC
  Log10GI50: -6.1 Molar
BT-549
  Log10GI50: -5.69 Molar
  Log10LC50: > -4.00 Molar
  Log10TGI: -5.18 Molar
BT-549; Homo sapiens
  GI50: 2.04 µM
BT-549; listed as (aR)-DM-MTC
  Log10GI50: -5.69 Molar
NCI-H23
  Log10GI50: -5.39 Molar
  Log10LC50: > -4.00 Molar
  Log10TGI: > -4.00 Molar
NCI-H23; Homo sapiens
  GI50: 4.07 µM
NCI-H23; listed as (aR)-DM-MTC
  Log10GI50: -5.39 Molar
MALME-3M
  Log10LC50: > -4.00 Molar
  Log10TGI: > -4.00 Molar
T-47D
  Log10GI50: -5.15 Molar
  Log10LC50: > -4.00 Molar
  Log10TGI: > -4.00 Molar
T-47D; Homo sapiens, T47D
  GI50: 7.08 µM
T-47D; listed as (aR)-DM-MTC
  Log10GI50: -5.15 Molar
LOX IMVI
  Log10GI50: -5.69 Molar
  Log10LC50: > -4.00 Molar
  Log10TGI: > -4.00 Molar
LOX IMVI; Homo sapiens
  GI50: 2.04 µM
LOX IMVI; listed as (aR)-DM-MTC
  Log10GI50: -5.69 Molar
NCI 60 cell lines
  fold less potent than colchicine, growth inhibition: 10 to 50 fold
NCI 60 cell lines; NCI-60, GI50 level
  selectivity range: 2.39 log units
NCI 60 cell lines; NCI-60 cell line selectivity, listed as (aR)-DM-MTC (6)
  Log10 Range at TGI: 2.13
NCI 60 cell lines; NCI-60 mean
  GI50: 2.4 µM
NCI 60 cell lines; NCI-60 mean total growth inhibition
  Mean TGI: 63 µM
NCI 60 cell lines; mean graph
  Delta Log10GI50: 0.95
  Delta Log10LC50: 0.73
  Delta Log10TGI: 1.93
  Range Log10GI50: 2.39
  Range Log10LC50: 0.74
  Range Log10TGI: 2.13
NCI 60 cell lines; mean graph midpoint
  _MID Log10GI50: -5.62 Molar
  _MID Log10LC50: -4.01 Molar
  _MID Log10TGI: -4.2 Molar
786-0
  Log10GI50: -5.35 Molar
  Log10LC50: > -4.00 Molar
  Log10TGI: > -4.00 Molar
786-0; Homo sapiens
  GI50: 4.47 µM
786-0; listed as (aR)-DM-MTC
  Log10GI50: -5.35 Molar
PC-3
  Log10GI50: -5.64 Molar
  Log10LC50: > -4.00 Molar
  Log10TGI: > -4.00 Molar
PC-3; Homo sapiens
  GI50: 2.29 µM
PC-3; listed as (aR)-DM-MTC
  Log10GI50: -5.64 Molar
MOLT-4
  Log10GI50: -5.58 Molar
  Log10LC50: > -4.00 Molar
  Log10TGI: > -4.00 Molar
MOLT-4; Homo sapiens
  GI50: 2.63 µM
MOLT-4; listed as (aR)-DM-MTC
  Log10GI50: -5.58 Molar
SK-MEL-5
  Log10GI50: -5.50 Molar
  Log10LC50: > -4.00 Molar
  Log10TGI: -4.42 Molar
SK-MEL-5; Homo sapiens
  GI50: 3.16 µM
SK-MEL-5; listed as (aR)-DM-MTC
  Log10GI50: -5.5 Molar
MCF7
  Log10GI50: -6.11 Molar
  Log10LC50: > -4.00 Molar
  Log10TGI: > -4.00 Molar
MCF7; Homo sapiens
  GI50: 0.78 µM
MCF7; listed as (aR)-DM-MTC
  Log10GI50: -6.11 Molar
K-562
  Log10GI50: -6.31 Molar
  Log10LC50: > -4.00 Molar
  Log10TGI: > -4.00 Molar
K-562; Homo sapiens, K562
  GI50: 0.49 µM
K-562; listed as (aR)-DM-MTC
  Log10GI50: -6.31 Molar
OVCAR-8
  Log10GI50: -5.47 Molar
  Log10LC50: > -4.00 Molar
  Log10TGI: > -4.00 Molar
OVCAR-8; Homo sapiens
  GI50: 3.39 µM
OVCAR-8; listed as (aR)-DM-MTC
  Log10GI50: -5.47 Molar
NCI-H460
  Log10GI50: -5.55 Molar
  Log10LC50: > -4.00 Molar
  Log10TGI: > -4.00 Molar
NCI-H460; Homo sapiens
  GI50: 2.82 µM
NCI-H460; listed as (aR)-DM-MTC
  Log10GI50: -5.55 Molar
SN12C
  Log10GI50: -5.46 Molar
  Log10LC50: > -4.00 Molar
  Log10TGI: > -4.00 Molar
SN12C; Homo sapiens
  GI50: 3.47 µM
SN12C; listed as (aR)-DM-MTC
  Log10GI50: -5.46 Molar
SR
  Log10GI50: -6.44 Molar
  Log10LC50: > -4.00 Molar
  Log10TGI: > -4.00 Molar
SR; Homo sapiens
  GI50: 0.36 µM
SR; listed as (aR)-DM-MTC
  Log10GI50: -6.44 Molar
TK-10
  Log10GI50: -4.18 Molar
  Log10LC50: > -4.00 Molar
  Log10TGI: > -4.00 Molar
TK-10; Homo sapiens
  GI50: 66.1 µM
TK-10; listed as (aR)-DM-MTC
  Log10GI50: -4.18 Molar
HL-60(TB)
  Log10GI50: -6.16 Molar
  Log10LC50: > -4.00 Molar
  Log10TGI: -5.10 Molar
HL-60(TB); Homo sapiens
  GI50: 0.69 µM
HL-60(TB); listed as (aR)-DM-MTC
  Log10GI50: -6.16 Molar
HT29
  Log10GI50: -5.73 Molar
  Log10LC50: > -4.00 Molar
  Log10TGI: -5.02 Molar
HT29; Homo sapiens, HT-29
  GI50: 1.86 µM
HT29; listed as (aR)-DM-MTC
  Log10GI50: -5.73 Molar
SK-MEL-28
  Log10LC50: > -4.00 Molar
  Log10TGI: > -4.00 Molar
HOP-92
  Log10GI50: -5.45 Molar
  Log10LC50: > -4.00 Molar
  Log10TGI: > -4.00 Molar
HOP-92; Homo sapiens
  GI50: 3.55 µM
HOP-92; listed as (aR)-DM-MTC
  Log10GI50: -5.45 Molar
HCT-116
  Log10GI50: -5.71 Molar
  Log10LC50: > -4.00 Molar
  Log10TGI: > -4.00 Molar
HCT-116; Homo sapiens
  GI50: 1.95 µM
HCT-116; listed as (aR)-DM-MTC
  Log10GI50: -5.71 Molar
CAKI-1
  Log10GI50: -6.03 Molar
  Log10LC50: > -4.00 Molar
  Log10TGI: > -4.00 Molar
CAKI-1; Homo sapiens
  GI50: 0.93 µM
CAKI-1; listed as (aR)-DM-MTC
  Log10GI50: -6.03 Molar
NCI/ADR-RES
  Log10GI50: -5.76 Molar
  Log10LC50: > -4.00 Molar
NCI/ADR-RES; Homo sapiens
  GI50: 1.74 µM
NCI/ADR-RES; listed as (aR)-DM-MTC
  Log10GI50: -5.76 Molar
